# Like-named read-outs stand apart in the source and are kept apart here.
# Columns and labels:
# [1] = test system: M. tuberculosis (ATCC 27294); assay: BACTEC drug susceptibility, M. tuberculosis; type: cell-based; conditions: Mycobacterium tuberculosis, ATCC27294
# [2] = test system: MRSA (Methicillin Resistant Staphylococcus aureus); assay: Patient isolates evaluated for antibiotic sensitivity, MRSA; conditions: for antibiotic sensitivity: threshold not given
# [3] = Determination of maximal tolerated dose (MTD), single intraperitoneal injection; conditions: mouse, in vivo, ip
# Method: (§1) Eight groups of BDF1 mice (5 animals/group) were used to determine a maximal tolerated dose (MTD) for HHC.
# (§2) All mice were weighed, the weight being used to determine blood volume for each animal. The amount of drug necessary to achieve a theoretical concentration of drug in the animal (e.g, 50, 100, 150 μM etc.) was calculated based on the formula: blood volume=8% body weight of the animal. Drug solutions were made using DMSO as the solvent and a single intraperitoneal injection of a volume of 100-120 μl was given. […] Based on the above, the MTD is determined to be at 200 μM (~6.5 mg/kg). To confirm the MTD, it is necessary to dose the animals with the predetermined MTD once a day for consecutive days following established experimental treatment times (i.e., 5 days for in vivo tumor inhibition studies).
# BDF1 mice = assay: as above; conditions: mouse, in vivo, ip
# Method: as §1, §2
# E. Coli = assay: Minimum inhibitory concentration, E. coli; conditions: Escherichia coli
# [4] = test system: CEM vinblastin resistant cells; assay: Trypan blue exclusion assay, cytostatic activity, CEM vinblastin resistant; type: cell-based; conditions: Homo sapiens; CEM vin resistant; incubation 48h; 4 experiments; read-out: ID50 (the source's name)
# Staphylococcus Aureas = assay: Minimum inhibitory concentration, Staphylococcus aureus; type: cell-based
# [5] = test system: Multidrug resistant Staphylococcus (except to Vancomycin); assay: Minimum inhibitory concentration, multidrug resistant Staphylococcus; type: cell-based
# MCF-7 cells = assay: Colony formation (clonogenic) assay, cytotoxic activity, 18 hour pulse exposure; type: cell-based; conditions: Homo sapiens, MCF7, 2 experiments, read-out: ID50 (the source's name)
# Method: HHC was tested for cytotoxic activity using a colony formation assay, using an 18 hour pulse exposure. The purpose of the clonogenic assay is to determine the concentration of HHC at which 50% of cell growth is inhibited (i.e., IC50) when cells are exposed to the HHC for a defined amount of time (i.e., a pulse exposure to the xenobiotic).
# Five ml of a mixture of 2×10^5 cells/ml (MCF-7 cells) were placed in each of 4 T-25 flasks in a media of RPMI (Gibco). The cells were incubated at 37 ° C. under 5% CO2 for a minimum of 14 hours to allow the cells to attach. The cells were pulsed for 18 hours with HHC concentrations of 0, 1.5, and 25 μM, or with DMSO.
# The media was removed from the flasks (i.e., media with floating cells) and placed in 15 ml polypropylene centrifuge tubes 1-4 (summarized in Table II). […]
# The cells in the original cell suspension (i.e., in the flask) were counted using trypan blue exclusion assay (described in Example II). Based on this count, the number of cells in the 50x tubes were calculated. The volume necessary to acquire approximately 5400 cells was then determined. […]
# Five ml of suspension from each of tubes 13-16 was transferred to 60×15 mm tissue culture dishes (in triplicate). […] The cells were counted in those colonies which consisted of at least 50 cells. The ID50 was determined as described in Example II.
# [6] = test system: MCF-7 cells (human breast adenocarcinoma); assay: Trypan blue exclusion assay, cytostatic activity, MCF-7; type: cell-based; conditions: MCF7, incubation 48h, 3 experiments, read-out: ID50 (the source's name)
# [7] = test system: VRE (Vancomycin resistant enterococcus); assay: Minimum inhibitory concentration, VRE; type: cell-based
# [8] = test system: C1300 cells (mouse neuroblastoma); assay: In vitro ID50 in C1300 mouse neuroblastoma cells; type: cell-based; conditions: Neuroblastoma cell; 48 hours of continuous exposure; preliminary data
# Method: C1300 cells (mouse neuroblastoma), a murine tumor cell model which is sensitive to HHC were evaluated.
# [9] = test system: VRE (Vancomycin Resistant Enterococcus faeclum); conditions: threshold not given
# Listeria monocytogenes = conditions: U.S. Pat. Nos. 5,286,506; 5,455,038; cited from earlier work
smiles,measurement,setting,value
"CC(C)CCC1=C(O)C(C(=O)C(C)C)=C(O)C(CCC(C)C)(CCC(C)C)C1=O [HHC, hexahydrocolupulone]",inhibition at 50 µM,"[1]; 50 μM, read-out: inhibition of tuberculosis growth",> 99%
same,inhibition at 100 µM,"[1]; 100 μM, read-out: inhibition of TB growth",100%
same,MIC,"[2]; Staphylococcus aureus, read-out: [HHC] (MIC)",1.01 µg/mL
same,antibiotic sensitivity,[2]; patient D,S
same,[HHC] (MIC),[2]; patient E,1.015 µg/mL
same,antibiotic sensitivity,[2]; patient E,S
same,[HHC] (MIC),[2]; patient F,1.015 µg/mL
same,antibiotic sensitivity,[2]; patient F,S
same,MTD,[3],~6.5 mg/kg
same,maximal tolerated dose (MTD),BDF1 mice,200 µM
same,MIC,E. Coli,> 100 µM
same,MIC,"E. Coli; read-out: MIC, HHC negative control",100 µg/mL
same,IC50,[4],2610 nM
same,MIC,"Staphylococcus Aureas; Staphylococcus Aureas, read-out: MIC",5 µM
same,MIC,"Staphylococcus Aureas; read-out: MIC, HHC positive control",2.03 µg/mL
same,MIC,[5],2.5 µM
same,IC50,MCF-7 cells,1620 nM
same,IC50,[6],1230 nM
same,cross resistance with vancomycin,[7],not cross resistant with vancomycin
same,MIC,[7]; Enterococcus,5 µM
same,IC50,[8],~1940 nM
same,antibiotic sensitivity,[9]; patient A,S
same,antibiotic sensitivity,[9]; patient B,S
same,antibiotic sensitivity,[9]; patient C,S
same,growth inhibition of food pathogens,Listeria monocytogenes,"can inhibit the growth of food pathogens, such as Listeria monocytogenes"

# — patent publication US5827895A, “Hexahydrolupulones useful as anticancer agents” (Regents of the University of Minnesota, priority 1996, dated 1998)
